# Source: patent US20040132079A1, “Assays relating to Toll-like receptor activity” (3M Innovative Properties Company, priority 2002, published 2004)
# Target: T1, human TLR6 (Homo sapiens, UniProt Q9Y2C9)
# T1 construct: expressed in transfected cells; host or cells: Namalwa cells (ATCC CRL-1432), co-transfected with pIFN-α1-luc and pCI-TLR6, G418-selected
# T1 sequence (Q9Y2C9 32-796): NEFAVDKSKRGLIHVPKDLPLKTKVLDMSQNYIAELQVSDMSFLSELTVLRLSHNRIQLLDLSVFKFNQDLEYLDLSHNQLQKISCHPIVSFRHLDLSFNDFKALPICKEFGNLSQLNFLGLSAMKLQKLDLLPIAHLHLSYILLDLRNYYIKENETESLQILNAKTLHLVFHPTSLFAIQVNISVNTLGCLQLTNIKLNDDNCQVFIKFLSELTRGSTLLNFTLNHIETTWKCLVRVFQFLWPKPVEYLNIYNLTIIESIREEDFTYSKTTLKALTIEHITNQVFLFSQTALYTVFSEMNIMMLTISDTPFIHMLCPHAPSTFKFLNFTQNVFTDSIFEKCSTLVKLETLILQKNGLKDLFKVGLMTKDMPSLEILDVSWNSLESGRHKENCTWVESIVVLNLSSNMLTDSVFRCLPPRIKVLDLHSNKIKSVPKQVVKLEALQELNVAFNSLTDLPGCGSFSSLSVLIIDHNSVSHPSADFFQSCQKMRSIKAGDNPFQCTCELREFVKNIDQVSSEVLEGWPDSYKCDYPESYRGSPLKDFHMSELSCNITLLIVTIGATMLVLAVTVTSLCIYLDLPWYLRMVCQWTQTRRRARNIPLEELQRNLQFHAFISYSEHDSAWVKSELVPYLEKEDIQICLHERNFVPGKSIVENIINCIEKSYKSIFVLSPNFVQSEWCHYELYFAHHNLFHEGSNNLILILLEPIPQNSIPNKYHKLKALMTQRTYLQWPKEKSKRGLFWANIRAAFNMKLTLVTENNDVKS
# Assay: Luciferase induction off of the IFN-α1 promoter in pIFN-α1-luc/pCI-TLR6 co-transfected Namalwa cells
# Type: cell-based
# Details: IRM compound 10 μM, 18 hours, compared to DMSO negative control, representative experiment
# Excerpt: The vector pIFN-α1-luc was constructed by inserting BglII sites at both ends of the human IFN-α1 promoter (SEQ ID NO:21). The BglII sites were inserted into the IFN-α1 promoter and the sequence was amplified using the primer pair of SEQ ID NO:22 and SEQ ID NO:23. The amplified IFN-α1 promoter was cloned into the pGL3-Enhancing vector (Promega Corp., Madison, Wis.) at the BglII site.
# The vector pCI-TLR6 was constructed by inserting SEQ ID NO:11 (GenBank Accession No. NM 006068), which includes the human TLR6 coding sequence, into the pCI-neo mammalian expression vector (Promega Corp.) at the vector's NheI and MluI restriction sites.
# Burkitt's Lymphoma lymphoblastoid Namalwa cells (ATCC Accession No. CRL-1432) were grown by incubation in culture medium overnight. Cells were harvested by centrifugation in a tabletop centrifuge (1200 RPM for 5 minutes), and then resuspended in phosphate buffered sucrose to a concentration of 1.3×10^7 cells per milliliter.
# For each transfection, a 750 μL aliquot of the cell suspension was placed in an electroporation cuvette with 4 mm gaps. 10 μg of the pIFN-α1-luc vector and 10 μg of the pCI-TLR6 vector were added to the electroporation cuvette. The cell and vector mixtures were incubated at room temperature for 5 minutes. The cells were electroporated using a BioRad Gene Pulser (BioRad Laboratories, Hercules, Calif.) set to at 500 μF capacitance and […], then incubated at room temperature for 5 minutes.
# The electroporated cells were suspended in 10 mLs of culture medium and incubated overnight. Dead cells and debris were removed after 24 hours using a MACS Dead Cell Removal kit (Miltenyi Biotec, Auburn, Calif.). Cells were resuspended in 10 mLs of culture medium and incubated for an additional 24 hours.
# Transfected cells were selected by adding G418 (Promega Corp., Madison, Wis.) to a final concentration of 1 mg/mL and incubating the cells for seven days.
# The selected transfected cells were counted and resuspended to a concentration of 1×10^6 cell per mL in culture medium. 100 μl aliquots of cells were placed in the wells of a white-walled, white-bottomed 96-well plate (Corning, Inc. Corning, N.Y.). 1.0 μL of an IRM compound from Table 1 (prepared at 1 mM in 100% DMSO) was added to some cell aliquots so that the final concentration of IRM compound was 10 μM. As a positive control, some cell aliquots were incubated with Sendai virus instead of IRM compound. As a negative control, some cell aliquots were incubated with DMSO without IRM compound. In all cases, the cells were incubated for 18 hours.
# The plates were equilibrated to room temperature before 1 volume of reconstituted LucLight Plus (Packard Instruments, Meriden, Conn.) was added to each aliquot of cells. Each well of the plate was read on an LJL Analyst (LJL Biosystems, Inc., Sunnyvale, Calif.) set with a 5 minute dark adapt. The data are expressed as the fold increase in luciferase induction off of the IFN-α1 promoter in cell aliquots incubated with the indicated stimulant compared to the negative control in which the cell aliquots were incubated with only DMSO.
row,Structure (SMILES),Fold Increase in Luciferase Induction
1,"CCOCc1nc2c(N)nc3c(c2n1CC(C)(C)O)CCCC3 [IRM1, 4-amino-2-ethoxymethyl-α,α-dimethyl-6,7,8,9-tetrahydro-1H-imidazo[4,5-c]quinoline-1-ethanol]",3.6 fold
2,"Cc1nc2c(N)nc3ccccc3c2n1CC(C)(C)O [IRM2, 4-amino-α,α,2-trimethyl-1H-imidazo[4,5-c]quinoline-1-ethanol]",2.7 fold
3,"CCCCc1nc2c(N)nc3ccccc3c2n1CCCCNS(C)(=O)=O [IRM3, N-[4-(4-amino-2-butyl-1H-imidazo[4,5-c]quinolin-1-yl)butyl]methanesulfonamide]",2.6 fold
4,"Nc1nc2ccccc2c2c1ncn2CCOCCCc1cccnc1 [IRM4, 1-{2-[3-(3-pyridyl)-propoxy]ethyl}-1H-imidazo[4,5-c]quinolin-4-amine]",4.0 fold
5,"CCCCc1nc2c(N)nc3cccnc3c2n1CC(C)C [IRM5, 2-butyl-1-(2-methylpropyl)-1H-imidazo[4,5-c][1,5]naphthyridin-4-amine]",3.2 fold
6,"CCCCc1nc2c(N)nc3c(c2n1CC(C)C)NCCC3 [IRM6, 2-butyl-6,7,8,9-tetrahydro-1-(2-methylpropyl)-1H-imidazo[4,5-c][1,5]naphthyridin-4-amine]",2.9 fold
7,"COCCc1nc2c(N)nc3ccccc3c2n1CCCCNC(=O)c1ccc(-n2cccc2)nc1 [IRM7, N^3-{4-[4-amino-2-(2-methoxyethyl)-1H-imidazo[4,5-c]quinolin-1-yl]butyl}-6-(1H-1-pyrrolyl)nicotinamide]",3.2 fold
8,"CCc1nc2c(N)nc3ccccc3c2n1CCCCCS(C)(=O)=O [IRM8, 2-ethyl-1-[5-(methylsulfonyl)-pentyl]-1H-imidazo[4,5-c]quinolin-4-amine]",2.3 fold
